Test results published in patent publication US20080008768A1, “Compositions and Methods for Inhibiting Sonic Hedgehog Activity” (priority 2004, published 2008).
Values joined by “and” are separate entries in the source; they are usually repeats but may differ in a detail not shown here. Equal entries are not always repeated. Where two headings read alike, the source gives them in different places. Marks after values point to notes of the source that are not given here.

Tests used:
[1] = tested on: Shh-dependent pancreatic cancer cell line L3.6pl; type: cell-based; details: for Cell Growth (normalized): normalized to cell growth in carrier
[2] = tested on: C57BL/6CrIBR mice; assay: Cadmium-induced forelimb ectrodactyly in fetuses of treated pregnant mice; type: in vivo, mouse
Protocol: Cadmium-induced Forelimb Ectrodactyly. C57BL/6CrIBR mice were purchased from Charles River Laboratories (Wilmington, Mass.). Individual males were placed in female cages for the last 2-3 hours of the 12 hour dark cycle (10:00 pm to 10:00 am). The presence of a vaginal plug indicated a successful mating and 9:00 am was considered time zero of pregnancy. On day 7 of gestation, plugged females were lightly anesthetized with Isofluorane and checked for pregnancy by abdominal palpation. The pregnant females were administered CdSO4 (SIGMA, St. Louis, Mo.), 4 mg/kg in phosphate-buffered saline (PBS), intraperitoneally, at 9:00 pm on day 9. These pregnant females were then allowed free access to food and water until day 18 when they were sacrificed by Isofluorane overdose. The fetuses were removed from the uterus and prepared for skeletal analysis by double-staining of cartilage and bone (Kuczuk and Scott (1984) supra).
CdSo4, 4 mg/kg, was administered intraperitoneally on day 9 of gestation.

[3] = tested on: mouse embryo zone of polarizing activity (ZPA); assay: Polarizing activity of mouse embryo ZPA grafted to chick wing bud; type: in vivo
Protocol: Polarizing Activity. Fertilized White Leghorn eggs (SPAFAS) were incubated at 38° C. On the second day, 1 to 2 mL of albumin were removed so that the eggs could be windowed the next day without damaging the embryo. After windowing, 3 drops of penicillin/streptomycin (50 units/mL) were added and the window closed with SCOTCH™ tape. On the fourth day of incubation a piece of day 10.5 mouse embryo right forelimb was excised from the posterior aspect (i.e., ZPA) of cadmium sulfate- or PBS-exposed embryos and grafted between the ectoderm and mesenchyme at the anterior margin of a stage 19/20 (Hamburger and Hamilton (1951) J. Morphol. 88:49-92) chick right wing bud. After grafting, 3 drops of penicillin/streptomycin were added, the window closed with tape and the egg replaced in the incubator for 7 additional days. At this time the chick embryo was sacrificed and the right wing bud processed for skeletal examination (Kuczuk and Scott (1984) supra). After staining, the digit pattern was determined and the index of polarizing activity was assessed according to standard methods (Honig, et al. (1981) J. Embryol. Exp. Morph. 62:203-216),

[4] = tested on: Shh signaling; assay: Shh signaling activity of forelimb bud lysate in Shh-Light 2 cells (Gli-luciferase reporter); type: cell-based, mouse; details: lysate of E10.5 right forelimb bud cells, 24 h after 4 mg/kg to dam
Protocol: Shh Signaling Activity. Pregnant C57BL/6 mice were treated with CdSo4, 4 mg/kg, or PBS, 10 mL/kg, at 9:00 pm on day 9 of gestation. Twenty-four hours post-treatment the dams were sacrificed. The implantation sites were removed and frozen in liquid nitrogen. Samples were stored at −80° C. until use in the Shh activity assay.
To create a sample of cell lysate, a litter of implantation sites was thawed and the embryos dissected free of their surrounding membranes. Somites were counted and the embryo limb staged according to standard practices (Wanek, et al. (1989) J. Exp. Zool. 249:41-49). […] Samples were sonicated and DNA measured using the HOEFER™ DYNA QUANT™ 200 Fluorimeter. After DNA quantification, fetal bovine serum was added so that the final concentration of serum was 0.5%.
Assay of SHH signaling activity was conducted in Shh-Light 2 cells, an NIH-3T3-derived stable cell line containing an integrated Gli-luciferase and constitutive Renilla luciferase reporters. […] Using the DUAL-LUCIFERASE® Reporter Assay System (PROMEGA®, Madison, Wis.), luciferase activity was measured and normalized to a Renilla control.
A more direct and specific assay of Shh signaling is provided in Shh-Light 2 cells. […] Culture of these cells with a medium or cellular homogenate containing Shh activates reporter expression and that activity can be quantitated luminometrically.

[5] = tested on: Shh; assay: Whole mount in situ hybridization, Shh; type: in vivo, mouse; details: right forelimb, 24 hours after treatment
Protocol: (§1) Whole Mount In Situ Hybridization. Assays were performed in accordance with standard methods (Wilkinson and Nieto (1993) Meth. Enzymol. 225:361-373). Embryos from control and cadmium-exposed pregnancies were processed together in the same vessel, examined and photographed using an OLYMPUS® SZX9 stereomicroscope. Digoxigenin-labeled riboprobes were transcribed from linearized DNA templates.
(§2) The expression pattern of four genes (i.e., Shh, Ptch1, Gli3, and Fgf8) in the right forelimb of control and cadmium-exposed embryos was examined by whole mount in situ hybridization 24 hours after treatment. The expression of Shh was restricted to the posterior mesenchymal cells of the developing murine limb bud.

[6] = tested on: Ptch1; assay: Whole mount in situ hybridization, Ptch1; type: in vivo, mouse; details: right forelimb, 24 hours after treatment
Protocol: as §1, §2

[7] = tested on: Gli3; assay: Whole mount in situ hybridization, Gli3; type: in vivo, mouse; details: right forelimb, 24 hours after treatment
Protocol: as §1, §2

[8] = tested on: Fgf8; assay: Whole mount in situ hybridization, Fgf8; type: in vivo, mouse; details: day 10.5, 24 hours after administration
Protocol: as §1, §2

[9] = tested on: Shh; assay: Quantitative RT-PCR of forelimb buds, Shh; type: in vivo, mouse; details: limb buds of day 10.5 embryos, normalized to tubulin
Protocol: (§3) Real Time Reverse Transcribed-Polymerase Chain Reaction (RT-PCR). Precise levels of message expression of Shh, Ptch1, and Gli3 were performed by RT-PCR. […] Right and left forelimb buds from a single litter (n=3) were pooled separately and equal amounts of total RNA were reverse-transcribed using […]™ II (INVITROGEN™, Carlsbad, Calif.) in the presence of oligo-dT or random primers. For quantitative PCR, aliquots of the reverse transcription reaction were amplified in the presence of SYBR® Green (Quantitect SYBR® green PCR kit; QIAGEN®, Valencia, Calif.) and gene specific primers for Shh, Ptch1, Gli3 and aTub. […] The PCR amplifications and monitoring of product generation per cycle were performed using a DNA Engine OPTICON® 2 Continuous Fluorescence Detector and evaluated using its software. Gene expression levels were determined by gene-specific standard curves in the linear amplification phase. All values were normalized to tubulin within the same sample.

[10] = tested on: Ptch1; assay: Quantitative RT-PCR of forelimb buds, Ptch1; type: in vivo, mouse; details: limb buds of day 10.5 embryos, normalized to tubulin
Protocol: as §3

[11] = tested on: Gli3; assay: Quantitative RT-PCR of forelimb buds, Gli3; type: in vivo, mouse; details: limb buds of day 10.5 embryos, normalized to tubulin
Protocol: as §3

[12] = tested on: mouse embryo zone of polarizing activity (ZPA); details: Bell, et al. (1999); cited from earlier work
[13] = 4 mg/kg i.p. day 9 of gestation, 8 dams, 68 implantation sites
[14] = 4 mg/kg i.p. day 9 of gestation, fetuses examined day 18

With Cadmium Sulfate the “Inhibition of proliferation (in words)” value ([1]; comparison of inhibitors) was “more effectively than cyclopamine and acetazolamide”, the “Cell Growth (normalized)” value ([1]; inhibitor 1 μM) was 1.0341 and the “Cell Growth (normalized)” value ([1]; inhibitor 10 μM) was 0.9007. The “Cell Growth (normalized)” value ([1]; inhibitor 30 μM) was 0.7200, the “Cell Growth (normalized)” value ([1]; inhibitor 100 μM) was 0.0041 and the “Cell Growth (normalized)” value ([1]; inhibitor 1000 μM) was 0.0029. The “Fetuses with right forelimb affected by postaxial ectrodactyly” value ([2]; 4 mg/kg i.p. day 9) was 78%, the “Number of fetuses with ectrodactyly, Bilateral R < L” value ([2]; 4 mg/kg i.p. day 9) was 3 and the “Number of fetuses with ectrodactyly, Bilateral R = L” value ([2]; 4 mg/kg i.p. day 9) was 21. The “Number of fetuses with ectrodactyly, Bilateral R > L” value ([2]; 4 mg/kg i.p. day 9) was 5, the “Number of fetuses with ectrodactyly, LFL Only” value ([2]; 4 mg/kg i.p. day 9, left forelimb only) was 4 and the “Number of fetuses with ectrodactyly, RFL Only” value ([2]; 4 mg/kg i.p. day 9, right forelimb only) was 12*. For the same compound, the “No. Resorptions” value [2, 13] was 15, the “Resorptions (%)” value [2, 13] was 22% and the “Fetuses with Postaxial Forelimb Ectrodactyly (%)” value [2, 14] was 85%. For the same compound, the “No. Fetuses with Postaxial Forelimb Ectrodactyly” value [2, 14] was 45, the “Capability of ZPA to induce limb reduplication (in words)” value ([3]; day 10.5 mouse embryo ZPA after exposure) was “severely inhibited” and the “Induced Digit Pattern” value ([3]; individual grafts of day 10.5 ZPA from exposed embryos, x = unidentifiable partial duplicated digit, listed as CdSo4) was 22234 and 234 (4×). The “Shh signaling level compared to lysate from control embryo right forelimb buds” value [4] was 25%, the “Shh expression location or intensity (in words)” value [5] was “No discernable difference” and the “Ptch1 expression pattern (in words)” value [6] was “unchanged”. For the same compound, the “Gli3 expression (in words)” value [7] was “did not alter Gli3 expression”, the “Fgf8 staining (in words)” value [8] was “slight truncation of Fgf8 staining posteriorly” and the “Shh mRNA level (in words)” value [9] was “A reduction of mRNA levels was not observed”. For the same compound, the “Ptch1 mRNA level (in words)” value [10] was “A reduction of mRNA levels was not observed” and the “Gli3 mRNA level (in words)” value [11] was “A reduction of mRNA levels was not observed”.

For `CC(=O)Nc1nnc(S(N)(=O)=O)s1` [Acetazolamide, reference compound], the “Cell Growth (normalized)” value ([1]; inhibitor 10 μM) was 1.0312, the “Cell Growth (normalized)” value ([1]; inhibitor 100 μM) was 1.0370 and the “Cell Growth (normalized)” value ([1]; inhibitor 1000 μM) was 1.0130. For the same compound, the “Signaling by Shh protein measured by polarizing activity of ZPA (in words)” value [12] was “almost totally abolished”.
